Data on three compounds can be found in patent publication US9663460B2, “Sulfur derivatives as chemokine receptor modulators” (ALLERGAN, INC., priority 2010, dated 2017).

Sequence of CCR2 (P41597 whole entry, species assumed): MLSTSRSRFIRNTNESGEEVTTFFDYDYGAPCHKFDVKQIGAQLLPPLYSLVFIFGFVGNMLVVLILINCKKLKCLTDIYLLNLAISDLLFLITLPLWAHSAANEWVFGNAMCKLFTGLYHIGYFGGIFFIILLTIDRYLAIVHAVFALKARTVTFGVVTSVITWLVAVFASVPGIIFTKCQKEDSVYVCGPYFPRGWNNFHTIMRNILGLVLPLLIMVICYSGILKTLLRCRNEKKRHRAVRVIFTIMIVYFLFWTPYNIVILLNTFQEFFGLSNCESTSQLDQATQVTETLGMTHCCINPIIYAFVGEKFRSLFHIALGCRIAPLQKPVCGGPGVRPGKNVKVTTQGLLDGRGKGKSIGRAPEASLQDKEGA

The test has as its target CCR2 (Homo sapiens (Human), UniProt P41597). Kind of test: Calcium activity assayed on the FLIPR Tetra in HEK-Gqi5 cells stably expressing CCR2. The class given is cell-based. As to conditions: FLIPR Tetra calcium assay.
For `Nc1cccc(C[S+]([O-])c2ccc(Cl)cc2NS(=O)(=O)c2cc3ccccc3o2)c1` (stereo not drawn) [N-{2-[(3-aminobenzypsulfinyl]-5-chlorophenyl}-1-benzofuran-2-sulfonamide], the “CCR2 % ANTAGONISM” value was 96% and the half-maximal inhibitory concentration (IC50) worked out at 39 nM.

On to `O=S(=O)(Nc1cc(Cl)ccc1[S+]([O-])CCc1cn[nH]c1)c1cc2ccccc2o1` (stereo not drawn) [N-(5-chloro-2-{[2-(1H-pyrazol-4-yl)ethyl]sulfinyl}phenyl)-1-benzofuran-2-sulfonamide], for which the “CCR2 % ANTAGONISM” value is recorded as 67% and the IC50 worked out at 1060 nM.

For `CSc1ccc(Cl)cc1NS(=O)(=O)c1ccc(C)c([N+](=O)[O-])c1` [N-[5-chloro-2-(methylthio)phenyl]-4-methyl-3-nitrobenzenesulfonamide], the “CCR2 % ANTAGONISM” value is 92% and the 50% inhibitory concentration (IC50) was 680 nM.

As a reminder, the IC50 is the concentration at which inhibition is half-maximal.
